Where two headings read alike, the source gives them in different places.
Columns and labels:
Assay in all cases: Synergism test: MIC of radial hyphae growth on malt extract/peptone agar, SI by Kull
Assay type in all cases: cell-based
[1] = tested on: Poria placenta; settings: nutrient agar, 26° C
[2] = tested on: Coriolus versicolor; settings: for MIC: Trametes versicolor
[3] = tested on: Coniophora puteana; settings: Example 8, penflufen/boron oxide, nutrient agar, 26° C
[4] = tested on: Gloeophyllum trabeum
[5] = tested on: Stereum sanguinolentum; settings: nutrient agar, 26° C
[6] = Example 4, penflufen/DDAC, read-out: MIC Poria placenta
[7] = Example 3, penflufen/Lonzabac, nutrient agar, 26° C, read-out: MIC against Coriolus versicolor
[8] = Example 9, penflufen/boric acid, nutrient agar, 26° C, read-out: MIC Gloeophyllum trabeum
[9] = Example 1, penflufen/IPBC, nutrient agar, 26° C, complete suppression of radial hyphae growth, read-out: MIC against Gloeophyllum trabeum
[10] = Example 5, penflufen/DDA propionate

`O.O.O.O.O.O.O.O.O.O.[Na+].[Na+].[O-]B1OB2OB([O-])OB(O1)O2` [sodium borate] was tested, and the “MIC against Poria placenta” value ([1]; Example 10, penflufen/sodium borate) was 100.0 ppm.

For `CCCCCCCCCC[N+](C)(C)CCCCCCCCCC.[Cl-]` [DDAC, Didecyldimethylammonium Chloride], the MIC [1, 6] was 100 µg/mL and the MIC ([2]; read-out: MIC Coriolus versicolor) was 60 µg/mL.

With `CCCCCCCCCCCCN(CCCN)CCCN` [Lonzabac, N-(3-aminopropyl)-N-dodecyl-1,3-propanediamine] the MIC [2, 7] was 30 µg/mL.

In the case of boron oxide, the “MIC against Coniophora puteana” value [3] is reported as 100 ppm.

With benzalkonium chloride the “MIC against Poria placenta” value ([1]; Example 6, penflufen/benzalkonium chloride) was 100.0 ppm.

Work on `OB(O)O` [boric acid] yielded an MIC [4, 8] of 100 µg/mL and an MIC ([2]; Example 9, penflufen/boric acid, nutrient agar, 26° C, read-out: MIC Coriolus versicolor) of 100 µg/mL.

`Cc1nn(C)c(F)c1C(=O)Nc1ccccc1C(C)CC(C)C` (stereo not drawn) [penflufen] was tested, and the MIC [4, 9] was 0.3 µg/mL, the MIC [4, 8] was 0.3 µg/mL and the MIC ([4]; Example 11, penflufen/o-phenylphenol, nutrient agar, 26° C, read-out: MIC against Gloeophyllum trabeum) was 0.7 µg/mL. For the same molecule, the “MIC Stereum sanguinolentum” value ([5]; Example 7, penflufen/Carboquat) was 3.0 ppm, the MIC ([5]; Stereum sanguinolentum, Example 5, penflufen/DDA propionate) was 3 µg/mL and the MIC ([3]; Coniophora puteana, read-out: MIC against Coniophora puteana) was 0.7 µg/mL. It also gave an MIC ([1]; Example 2, penflufen/DCOIT, read-out: MIC against Poria placenta) of 0.3 µg/mL, an MIC [1, 6] of 0.1 µg/mL and an MIC ([1]; Example 5, penflufen/DDA propionate, read-out: MIC Poria placenta) of 0.3 µg/mL. The MIC ([1]; Example 6, penflufen/benzalkonium chloride, read-out: MIC against Poria placenta) was 0.3 µg/mL, the MIC ([1]; Example 7, penflufen/Carboquat, read-out: MIC Poria placenta) was 0.3 µg/mL and the MIC ([1]; Example 10, penflufen/sodium borate, read-out: MIC against Poria placenta) was 0.3 µg/mL. For the same molecule, the “MIC Coriolus versicolor” value ([2]; Example 9, penflufen/boric acid, nutrient agar, 26° C) was 0.1 ppm, the MIC [2, 7] was 0.5 µg/mL and the MIC ([2]; Example 4, penflufen/DDAC, nutrient agar, 26° C, read-out: MIC Coriolus versicolor) was 0.1 µg/mL.

`Oc1ccccc1-c1ccccc1` [o-phenylphenol] was tested, and the MIC ([4]; read-out: MIC against Gloeophyllum trabeum) was 60 µg/mL.

With “didecylmethylpoly(oxyethyl)ammonium Propionate [DDA propionate]” the “MIC Stereum sanguinolentum” value [5, 10] was 30.0 ppm and the “MIC Poria placenta” value [1, 10] was 100.0 ppm.

`CCCCNC(=O)OCC#CI` [IPBC, 3-Iodo-2-propynyl N-butylcarbamate] showed an MIC [4, 9] of 10 µg/mL.

Source: patent publication US9596854B2, “Fungicidal penflufen mixtures” (priority 2010, dated 2017)
